The text below walks through data of US20160223554A1, “METHODS FOR DIAGNOSIS, PROGNOSIS AND METHODS OF TREATMENT” (priority 2011, published 2016).

Like-named read-outs stand apart in the source and are kept apart here. Residues, ends and D or L forms follow the SMILES beside them. *: point of attachment. Cbz = O=C(OCc1ccccc1)*; CH2F = FC*

In data set [1] the test system is AML blasts. The experiment in a line: In vitro drug-induced apoptosis (c-PARP, amine aqua) in primary AML samples (Example 20). The format is cell-based, human. The following applies: for cells induced to undergo apoptosis: sample COG-06 (MDR+); for cells induced to undergo apoptosis / cells undergoing apoptosis / apoptotic cells: 48 hours, CLO 0.25 μM, AZA 2.5 μM, DEC 0.625 μM; for Apo: 48 hour treatment; for cells undergoing apoptosis: sample COG-07. On the procedure:
(§1) Cryopreserved peripheral blood (PBMC) or bone marrow (BMMC) mononuclear cells were obtained from patients with a new diagnosis of AML treated at British Columbia Cancer Agency or Lucile Packard Children's Hospital at Stanford University. All patients provided informed consent for research purposes. Samples were processed (thawed, modulated, fixed, permeabilized, and incubated with antibodies to both surface and intracellular proteins) as previously described (Kornblau, Minden et al., Dynamic single-cell network profiles in acute myelogenous leukemia are associated with patient response to standard induction therapy, 2010, Journal/Clin Cancer Res, 16, 14, 3721-3733; Rosen, Minden et al., Functional characterization of FLT3 receptor signaling deregulation in acute myeloid leukemia by single cell network profiling (SCNP), 2010, Journal/PLoS One, 5, 10, e13543). In this study, cellular DNA damage repair (DDR) and apoptosis were measured simultaneously in AML blasts after exposure to chemotherapeutic agents. Antibodies against phosphorylated (p)-H2AX or p-Chk2 were used to measure the DDR to DSB, while simultaneous measurements of cleaved PARP (c-PARP) and amine aqua viability dye were used to quantify apoptosis and cell death. Chemotherapeutics included Ara-C/Dauno (the two drugs currently used in standard AML induction therapy), Gemtuzumab Ozogamicin (GO), and three other agents currently being evaluated in AML clinical trials [Decitabine (DEC), 5-azacytidine (AZA) and Clofarabine (CLO)]. […] Drug-specific incubation times were chosen to analyze both DDR and apoptosis readouts: Ara-C/Dauno (24 hours), GO, CLO, AZA, DEC (48 hours). […] Similarly, apoptosis responses were not observed for DEC until 48 hours and were higher for AZA at 48 hours (data not shown). PI3Kinase/Akt and Raf/Ras pathway activities were assessed using stem cell factor (SCF) induced p-Akt and p-Erk readouts. Data was acquired on an LSRII flow cytometer and leukemic cells were identified by CD45 versus right-angle light-scatter. Metrics for DDR (Log2Fold) and induced apoptosis have been described previously (Rosen, Putta et al., Distinct patterns of DNA damage response and apoptosis correlate with Jak/Stat and PI3kinase response profiles in human acute myelogenous leukemia, 2010, Journal/PLoS One, 5, 8, e12405).

In data set [2] the test system is AML blasts. The experiment in a line: DNA damage response (p-H2AX, p-Chk2) to chemotherapeutics in primary AML samples (Example 20). The class given is cell-based, human. The following applies: for timing of induced DNA damage (pH2AX) relative to apoptosis: primary AML samples; for DDR: pH2AX, 48 hour treatment. On the procedure: as §1
A further data set relates to AML leukemic cells. Kind of data set: Apotosis/Cytostasis Arm with kinase inhibitors (Example 13). The following applies: two samples with greatest SCF and G-CSF signaling response; 1 μM; 48-hr incubation. The format is cell-based, human. The text has this: All results were compared with results from bone marrow samples from healthy donors (N=6).
For data set [3] the following is noted: cited from earlier work.
The subject of data set [4] is AML blasts. The experiment in a line: SCNP functional apoptosis and DNA damage response assay in AML PBMC (Examples 2, 6, 8, 10). The format is cell-based, human. The note with it: with staurosporine or etoposide. On the procedure:
A viable cell will be Aqua negative and PARP negative and a measure of cell death is PARP and/or Aqua positivity.
“Apoptosis”=% of PARP^−Aqua^−unstim−% of PARP^−Aqua^−Drug.
Functional assays were performed as previously described. See Irish, et al., Cell 2004; 118:217-228.
The median fluorescence intensity (MFI) was computed for each node from the fluorescence intensity levels for the cells in the myeloid population. The MFI values were then used to compute a variety of metrics by comparing them to baseline or background values, including the unmodulated condition, cellular autofluorescence and antibody isotype controls. The following metrics were computed: • 1. Basal MFI (“Basal”)=log2(MFIUnmodulated Stained)−log2(MFIGated Unstained (Autofluoresence)), designed to measure the basal levels of a certain protein under unmodulated conditions. • 2. Fold Change MFI (“Fold”)=log2(MFIModulated Stained)−log2(MFIUnmodulated Stained), a measure of the change in the activation state of a protein under modulated conditions. • 3. Total Phospho MFI (“TotalPhospho”)=log2(MFIModulated Stained)−log2(MFIGated Unstained (Autofluorescence)), a measure of the total levels of a protein under modulated conditions. • 4. Relative Protein Expression (“Rel. Expression”)=log2(MFIstain)−log2(MFIControl), a measure of the levels of surface marker staining relative to control antibody staining • 5. […]

Consider `Nc1ncn([C@@H]2O[C@H](CO)[C@@H](O)[C@H]2O)c(=O)n1` [AZA, 5-azacytidine], for which, in the data set on AML blasts [1], the “cells induced to undergo apoptosis” value was 77.5% and the cells undergoing apoptosis came out at 32%. For the same compound, in the data set with AML blasts [1] (sample COG-06), the Apo result is “+ (For Apo, “+” signifies induced apoptosis >50%.)”. In addition, in the data set with AML blasts [1] (sample COG-09), the Apo result was “+ (For Apo, “+” signifies induced apoptosis >50%.)” and the apoptotic cells came to 57%. In the data set on AML blasts [2], the “timing of induced DNA damage (pH2AX) relative to apoptosis” value (“timing … (pH2AX) relative to apoptosis” for short) is “coincident with apoptosis”.
Turning to `Nc1nc(Cl)nc2c1ncn2[C@@H]1O[C@H](CO)[C@@H](O)[C@@H]1F` [CLO], in the data set with AML blasts [1], the “cells induced to undergo apoptosis” value was 81% and the cells undergoing apoptosis is 20%. Further, the Apo result in the data set on AML blasts [1] (sample COG-06) is recorded as “+ (For Apo, “+” signifies induced apoptosis >50%.)”. This compound also showed an apoptotic cells in the data set on AML blasts [1] (sample COG-09) of 13%. Further, the “timing … (pH2AX) relative to apoptosis” value in the data set on AML blasts [2] is on record as “before apoptosis”. For the same compound, in the data set on AML blasts [2] (sample COG-06), the “DNA damage response (DDR)” value is “robust DDR” and the DDR result is “+ (For DDR, “+” signifies Log2Fold >0.5 (in live cPARP- cells).)”. For the same compound, the “DNA damage response (DDR)” value with AML blasts [2] (sample COG-07) is “defective DDR”. For the same compound, in the data set on AML blasts [2] (sample COG-09), the “DNA damage response (DDR)” value is “robust DDR” and the DDR entry is listed as “+ (For DDR, “+” signifies Log2Fold >0.5 (in live cPARP- cells).)”.
For the compound `C[C@@H]1CCN(C(=O)CC#N)C[C@@H]1N(C)c1ncnc2[nH]ccc12` [CP-690,550], the “sensitivity to kinase inhibitor, cytostasis readouts” value in the data set with AML leukemic cells is listed as “most sensitive”.
On to `Nc1ccn([C@@H]2O[C@H](CO)[C@@H](O)[C@@H]2O)c(=O)n1` [Cytarabine, 1β-arabinofuranosylcytosine], for which the peak plasma concentration in data set [3] (high dose Cytarabine, 3 g/m2) was 2 µM; in data set [3] (standard dose of Cytarabine, 100 mg/m2), “approximately 40 nM”.
For the compound `COc1cccc2c1C(=O)c1c(O)c3c(c(O)c1C2=O)C[C@@](O)(C(C)=O)C[C@@H]3O[C@H]1C[C@H](N)[C@H](O)[C@H](C)O1` [Daunorubicin], the peak plasma concentration in data set [3] (Daunorubicin at 25 mg/m2) is 50 ng/mL; in data set [3] (Daunorubicin at 50 mg/m2), 200 ng/mL.
`C/C=C/C[C@@H](C)C(=O)[C@H]1C(=O)N[C@@H](C(C)C)C(=O)N(C)CC(=O)N(C)[C@@H](CC(C)C)C(=O)N[C@@H](C(C)C)C(=O)N(C)[C@@H](CC(C)C)C(=O)N[C@@H](C)C(=O)N[C@H](C)C(=O)N(C)[C@@H](CC(C)C)C(=O)N(C)[C@@H](CC(C)C)C(=O)N(C)[C@@H](C(C)C)C(=O)N1C` [PSC833]: the “effect of co-treatment on GO-induced apoptosis” value in the data set with AML blasts [1] (sample COG-06, resistant to Ara-C/Dauno and GO, co-treatment with GO) is listed as “substantially sensitized the leukemic cells to GO-induced apoptosis”.
Take `COC(=O)CC(NC(=O)C(C)NC(=O)C(NC(=O)OCc1ccccc1)C(C)C)C(=O)CF` (stereo not drawn) [Z-VAD, Benzyloxycarbonyl-Val-Ala-Asp (OMe) fluoromethylketone] (Cbz-Val-Ala-Asp(OMe)-CH2F; configuration not given here): in the data set with AML blasts [4] (samples 0341, 0521), the “effect of co-incubation with pan-Caspase inhibitor on Cleaved Caspase-3 and PARP” value is “inhibited cleavage of caspase 3 and PARP to near completion”. The “effect of co-incubation with pan-Caspase inhibitor on PARP cleavage” value in the data set with AML blasts [4] (samples 8303, 8402) is given as “only partially inhibited”.
For the compound “GO: recombinant humanized IgG4, kappa antibody conjugated with a cytotoxic antitumor antibiotic, calicheamicin”, in the data set on AML blasts [2], the “timing … (pH2AX) relative to apoptosis” value is recorded as “before apoptosis”.
